# Laboratory results as given in patent US20240269139A1, “COMPOUNDS FOR TARGETED PROTEIN DEGRADATION OF KINASES” (DANA-FARBER CANCER INSTITUTE, INC., priority 2020, published 2024).
# Entries after “also recorded” stand apart in the source; their conditions may differ.
# Columns and labels:
# [1] = system: protein kinases (human kinome); type: cell-based; settings: for kinases the bifunctional compound degrades: as stated for the structure in the embodiments; for Kinase hits: kinases significantly downregulated vs DMSO (fold change cutoff −1.25, P-value<0.01), ≤8 h, 0.1-5 μM degrader, 7 cell lines; for Total no. kinase hits: number of degraded kinases per library compound
# Excerpt: (§1) Although development of targeted protein degraders requires a POI binder, among already-liganded proteins such as kinases, it was hypothesized that different targets would have a different propensity for current approaches to degrader-mediated destruction, which was termed ‘degradability’. […] It was rationalized that the probability of identifying the same kinase as a false positive in multiple treatments is low, therefore this analysis served to also assess the robustness of our data and subsequent interpretations. […] Overall, 62 protein kinases were degraded in more than 10 independent treatments, and remarkably, 9 of these (CDK4, AURKA, FER, WEE1, BLK. LIMK2, CDK6, GAK, LIMK1) were each degraded in at least 40 of the 154 independent treatments, emphasizing their predisposition to induced degradation (FIG. 1G; Appendix I).
# (§2) Next, the frequency of degradation assessment was corrected for over-representation of molecules in the full dataset by omitting replicate profiling of compounds under different experimental conditions, to remove any bias. […] Unsurprisingly, the top degradable kinases mirror those from the previous analysis (CDK4, AURKA, FER, WEE1, BLK), confirming that in sufficiently large datasets, even with over-representation of certain molecules, frequency of degradation is a good measure of general tractability.
# [2] = target: protein kinases (human kinome) (Homo sapiens, UniProt P16591); type: cell-based; settings: Experiment wp012; down
# Chain of protein kinases (human kinome) (Homo sapiens, UniProt P16591) (P16591 whole entry): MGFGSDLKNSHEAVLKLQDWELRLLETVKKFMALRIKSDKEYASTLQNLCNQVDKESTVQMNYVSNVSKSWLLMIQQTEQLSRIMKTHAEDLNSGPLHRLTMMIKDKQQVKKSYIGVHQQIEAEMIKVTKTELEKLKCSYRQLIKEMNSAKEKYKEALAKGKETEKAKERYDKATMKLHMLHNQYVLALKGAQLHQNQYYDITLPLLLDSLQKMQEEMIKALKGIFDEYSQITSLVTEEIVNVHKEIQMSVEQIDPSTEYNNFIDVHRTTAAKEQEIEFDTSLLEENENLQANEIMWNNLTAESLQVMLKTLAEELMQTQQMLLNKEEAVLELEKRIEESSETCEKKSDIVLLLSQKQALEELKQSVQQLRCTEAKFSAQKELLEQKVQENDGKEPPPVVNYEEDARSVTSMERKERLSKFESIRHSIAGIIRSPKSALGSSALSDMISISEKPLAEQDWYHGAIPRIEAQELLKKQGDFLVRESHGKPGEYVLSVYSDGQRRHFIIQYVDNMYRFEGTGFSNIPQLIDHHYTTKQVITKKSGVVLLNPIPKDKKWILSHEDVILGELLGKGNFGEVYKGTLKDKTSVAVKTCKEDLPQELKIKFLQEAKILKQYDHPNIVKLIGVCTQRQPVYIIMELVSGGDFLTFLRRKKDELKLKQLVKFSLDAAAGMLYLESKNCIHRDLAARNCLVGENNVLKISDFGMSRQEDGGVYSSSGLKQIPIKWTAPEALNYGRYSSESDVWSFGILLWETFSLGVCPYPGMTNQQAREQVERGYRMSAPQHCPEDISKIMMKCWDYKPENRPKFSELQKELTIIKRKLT
# Excerpt: as §1, §2
SMILES,kinases the bifunctional compound degrades [1],Kinase hits [1],Total no. kinase hits [1],logFC of FER (P16591-1) [2],"logFC PTK2 (Q05397-5) ([1]; Experiment wp012, direction of change down)","logFC RPS6KA1 ([1]; RPS6KA1 (Q15418-2), experiment wp012)"
"CC(C)S(=O)(=O)c1ccccc1Nc1nc(Nc2ccc(N3CCN(CCOCCOCCOCCNC(=O)CNc4cccc5c4C(=O)N(C4CCC(=O)NC4=O)C5=O)CC3)cc2)ncc1Cl (stereo not drawn) [SK-3-87, N-(2-(2-(2-(2-(4-(4-((5-chloro-4-((2-(isopropylsulfonyl)phenyl)amino)pyrimidin-2-yl)amino)phenyl)piperazin-1-yl)ethoxy)ethoxy)ethoxy)ethyl)-2-((2-(2,6-dioxopiperidin-3-yl)-1,3-dioxoisoindolin-4-yl)amino)acetamide]","AAK1, AURKA, BLK, CDK12, CDK17, CDK2, CDK5, CDK7, CDK9, FER, ITK, LCK, LIMK2, PTK2B, and WEE1","AAK1, AURKA, BLK, CDK12, CDK17, CDK2, CDK5, CDK7, CDK9, FER, ITK, LCK, LIMK2, PTK2B, WEE1",15,,,
Cc1ccc(NC(=O)c2cccc(C(C)(C)C#N)c2)cc1Nc1ccc2ncn(CCOCCOCCC(=O)N[C@H](C(=O)N3C[C@H](O)C[C@H]3C(=O)NCc3ccc(-c4scnc4C)cc3)C(C)(C)C)c(=O)c2c1 [DD-02-198],MAPK14,MAPK14,1,,,
NC(=O)c1c(F)cccc1Nc1nc(Nc2ccc(S(=O)(=O)NCCOCCOCCOCCOCCNc3cccc4c3C(=O)N(C3CCC(=O)NC3=O)C4=O)cc2)ncc1Br (stereo not drawn) [TMX-02-138],,"AAKI, AURKA, AURKB, CDK1, CDK12, CDK16, CDK17, CDK2, CDK5, CDK7, CDK9, CLK1, FER, GSK3A, GSK3B, IRAK3, MAPSK11, MAPK8, MAPK9, NUAK1, PRKAA1, PRKAA2, PTK2B, RPS6KA1, RPS6KA3, STK33, STK38, TTK",28,,,
Cc1cc(S(=O)(=O)NCCOCCOCCOCCOCCNc2cccc3c2C(=O)N(C2CCC(=O)NC2=O)C3=O)ccc1Nc1ncc(Br)c(Nc2cccc(F)c2C(N)=O)n1 (stereo not drawn) [TMX-02-172],,"AURKA, AURKB, CDK1, CDK2, CDK5, MAPK8, MAPK9, PTK2, RPS6KA1, RPS6KA3, STK33, TTK",12,,,
CN(C)C(=O)c1cc2cnc(Nc3ccc(N4CCN(CCCCNC(=O)COc5cccc6c5C(=O)N(C5CCC(=O)NC5=O)C6=O)CC4)cn3)nc2n1C1CCCC1 (stereo not drawn) [BSJ-04-132],,"BCKDK, CDK4, CDK6, COQ8A, PDK1, PDK2, PDK3,",3,,,
Cc1c(NC(=O)c2ccc(C(C)(C)C)cc2)cccc1-c1cn(C)c(=O)c(Nc2ccc(C(=O)N3CCN(CCCCCCNC(=O)CNc4cccc5c4C(=O)N(C4CCC(=O)NC4=O)C5=O)CC3)cc2)n1 (stereo not drawn) [DD-03-171],,BTK,1,,,
COc1cc(N2CCN(CCOCCOCCNC(=O)CNc3cccc4c3C(=O)N(C3CCC(=O)NC3=O)C4=O)CC2)ccc1Nc1ncc(Cl)c(Nc2ccccc2S(=O)(=O)C(C)C)n1 (stereo not drawn) [TL13-12],,"AURKA, FER, PRK2",3,,,
CC(C)(C)c1nc(-c2cccc(NS(=O)(=O)c3c(F)cccc3F)c2F)c(-c2ccnc(NCCOCCNC(=O)CCOCCOCCNc3cccc4c3CN(C3CCC(=O)NC3=O)C4=O)n2)s1 (stereo not drawn) [DD-03-107],"BCKDK, COQ8A, LIMK1, PDK1, PDK2, and PDK3","BCKDK, COQ8A, LIMK1, PDK1, PDK2, PDK3",6,,,
Cc1cnc(Nc2ccc(N3CCN(CCOCCOCCNC(=O)COc4cccc5c4C(=O)N(C4CCC(=O)NC4=O)C5=O)CC3)cc2)nc1Nc1cccc(S(=O)(=O)NC(C)(C)C)c1 (stereo not drawn) [JWG-118],"AAK1, AURKA, BMP2K, GAK, and WEE1","AAK1, AURKA, BMP2K, GAK, WEE1",5,,,
Cc1cc(Nc2ncc(Cl)c(Nc3ccccc3S(=O)(=O)C(C)C)n2)c(OC(C)C)cc1C1CCN(CCOCCOCCNC(=O)CNc2cccc3c2C(=O)N(C2CCC(=O)NC2=O)C3=O)CC1 (stereo not drawn) [TL13.112],,,,−0.5247,−0.6217,−0.7875
Cc1cc(Nc2ncc(Cl)c(Nc3ccccc3S(=O)(=O)C(C)C)n2)c(OC(C)C)cc1C1CCN(CCOCCOCCNC(=O)CNc2cccc3c2C(=O)N(C2CCC(=O)NC2=O)C3=O)CC1 (stereo not drawn) [TL13-112],,"FER, PTK2, RPS6KA1",3,,,
O=C(CCCCCCNC(=O)COc1cccc2c1C(=O)N(C1CCC(=O)NC1=O)C2=O)NCCOc1ccc(Nc2ncc3ccc(=O)n(C4CC5CCC4C5)c3n2)cc1 (stereo not drawn) [SB1-G-194],"AAK1, AURKA, AURKB, CDK6, CDK9, FGR2, STK17A, and TTK","AAK1, AURKA, AURKB, CDK6, CDK9, FGR2, STK17A, TTK",8,,,
CN1c2ccccc2C(=O)Nc2cnc(Nc3ccc(N4CCN(C(=O)CCOCCNc5cccc6c5C(=O)N(C5CCC(=O)NC5=O)C6=O)CC4)cc3)nc21 (stereo not drawn) [ZNL-03-127],"BLK, LIMK1, LIMK2, STK17A, and TNK2","BLK LIMK1, LIMK2 STK17A, TNK2",5,,,
CC(=O)c1c(C)c2cnc(Nc3ccc(N4CCN(CCCCNC(=O)COc5cccc6c5C(=O)N(C5CCC(=O)NC5=O)C6=O)CC4)cn3)nc2n(C2CCCC2)c1=O (stereo not drawn) [BSJ-03-204],,"CDK4, CDK6, PDK1, WEE1",4,,,
CC(C)S(=O)(=O)c1ccccc1Nc1nc(Nc2ccc(N3CCN(CCOCCOCCNC(=O)CNc4cccc5c4C(=O)N(C4CCC(=O)NC4=O)C5=O)CC3)cc2)ncc1Cl (stereo not drawn) [TL12-186],,"AAK1, ABL1, AURKA, AURKB, BLK, BMPR1A, BUB1, BUB1B, CDK10, CDK12, CDK13, CDK17, CDK2, CDK4, CDK5, CDK6, CDK7, CDK9, COQ8A, COQ8B, CSNK1D, CSNK1E,; also recorded: EEF2K, FER, FLT1, GAK, HASPIN, IRAK4, ITK, LCK, LIMK1, LIMK2, MAP3K11, MAP3K21, MAP4K1, MAP4K3, MAPK6, MAPK7, MARK2, MARK4, NEK2, NLK, PDK2, PLK4, PRAG1, PRKAA1, PTK2B, RIOK2, RPS6KA1, SIK2, SRC, STK10, STK17A, STK35, TEC, TNK2, ULK1, ULK3, WEE1, YES1",60,,,
Cc1cnc(Nc2ccc(N3CCN(CCOCCOCCC(=O)N[C@H](C(=O)N4C[C@H](O)C[C@H]4C(=O)N[C@@H](C)c4ccc(-c5scnc5C)cc4)C(C)(C)C)CC3)cc2)nc1Nc1cccc(S(=O)(=O)NC(C)(C)C)c1 [JWG-122],AAK1 and GAK,"AAK1, GAK",2,,,
"Nc1ncc(-c2ccc(S(=O)(=O)N(CCCNC(=O)CCOCCOCCOCCOCCOCCNc3cccc4c3C(=O)N(C3CCC(=O)NC3=O)C4=O)C3CC3)cc2F)cc1-c1ccc2c(c1)CCNC2=O (stereo not drawn) [WH-9533-153, N-(3-((4-(6-amino-5-(1-oxo-1,2,3,4-tetrahydroisoquinolin-6-yl)pyridin-3-yl)-N-cyclopropyl-3-fluorophenyl)sulfonamido)propyl)-1-((2-(2,6-dioxopiperidin-3-yl)-1,3-dioxoisoindolin-4-yl)amino)-3,6,9,12,15-pentaoxaoctadecan-18-amide]",,"CDK14, CSNK1D, GSK3A, GSK3B, NUAK1, PIM2, STK17B, STK35, STK4",13,,,
"Cc1ccc(NC(=O)c2cccc(C(F)(F)F)c2)cc1N1Cc2cnc(Nc3ccc(N4CCN(CCCCCC(=O)N[C@H](C(=O)N5C[C@H](O)C[C@H]5C(=O)N[C@@H](C)c5ccc(-c6scnc6C)cc5)C(C)(C)C)CC4)nc3)nc2N(C)C1=O [DB1114, (2S,4R)-1-((S)-3,3-dimethyl-2-(6-(4-(5-((8-methyl-6-(2-methyl-5-(3-(trifluoromethyl)benzamido)phenyl)-7-oxo-5,6,7,8-tetrahydropyrimido[4,5-d]pyrimidin-2-yl)amino)pyridin-2-yl)piperazin-1-yl)hexanamido)butanoyl)-4-hydroxy-N—((S)-1-(4-(4-methylthiazol-5-yl)phenyl)ethyl)pyrrolidine-2-carboxamide]",,,31,,,
Nc1ncnc2c1c(-c1ccc(Oc3ccccc3)cc1)nn2[C@@H]1CCCN(C(=O)CCCN2CCN(CCNC(=O)CCOCCOCCNc3cccc4c3C(=O)N(C3CCC(=O)NC3=O)C4=O)CC2)C1 (stereo partly drawn) [DD-03-119],"ABL2, BLK, CSK, FYN, LCK, SRC, and TEC","ABL2, BLK, CSK, FYN, LCK, SRC, TEC",3,,,
COc1cc(N2CCN(CCOCCOCCC(=O)N[C@H](C(=O)N3C[C@H](O)C[C@H]3C(=O)N[C@@H](C)c3ccc(-c4scnc4C)cc3)C(C)(C)C)CC2)ccc1Nc1ncc2c(n1)N(C)c1ccccc1C(=O)N2CC(F)(F)F [FMF-03-178-1],,"BLK, CSK",2,,,
"Cn1c(=O)c(-c2c(Cl)cccc2Cl)cc2cnc(Nc3ccc(OCCNC(=O)CCCCCCNC(=O)COc4cccc5c4C(=O)N(C4CCC(=O)NC4=O)C5=O)cc3)nc21 (stereo not drawn) [SB1-G-192-1, N-(2-(4-((6-(2,6-dichlorophenyl)-8-methyl-7-oxo-7,8-dihydropyrido[2,3-d]pyrimidin-2-yl)amino)phenoxy)ethyl)-7-(2-((2-(2,6-dioxopiperidin-3-yl)-1,3-dioxoisoindolin-4-1413 yl)oxy)acetamido)heptanamide]","ABL1, ABL2, AURKA, BLK, CSK, EPHA3, EPHB6, FYN, GAK, LCK. LIMK2, MAPK14, NLK, PDK1, PKMYT1, SIK2, SRC, TNK2, WEE1, and YES1","ABL1, ABL2, AURKA, BLK, CSK, EPHA3, EPHB6, FYN, GAK, LCK, LIMK2, MAPK14, NLK, PDK1, PKMYT1, SIK2, SRC, TNK2, WEE1, YES1",20,,,
